Measurements from US7445909B2, “Method for detecting reactive metabolites using a combination of glutathione and a stable isotopic derivative of glutathione and mass spectroscopy-based pattern recognition” (Janssen Phamaceutica N.V., priority 2004, dated 2008).

How the values were obtained:
[1] = system: human microsomal proteins; test: Stable isotope (GSH/GSX) trapping of reactive metabolites in microsomal incubation, LC-MS/MS neutral loss scanning of 129 Da; assay type: in vitro ADME; details: 10 μM test compound, 1 mg/mL human microsomal proteins, 1 mM GSH and GSX (1:1), NADPH generating system, 60 min, 37° C., pH 7.4
Description: All microsomal incubations described herein were performed at 37° C. in a water bath. […] Alternatively, the reaction mixtures were subjected to liquid-liquid extractions to recover the metabolites from supernatants.
MS analyses were performed on a Micromass (Manchester, UK) Quattro Micro triple quadrupole mass spectrometer.
For complete profiling of reactive metabolites, samples were first subjected to chromatographic separations with an Agilent 1100 HPLC system with an auto-sampler (Agilent Technologies, Palo Alto, Calif.), and eluents were introduced to the Quattro Micro triple quadrupole mass spectrometer operated in the neutral loss scanning mode. An Agilent Zorbax SB C18 column (2.1×50 mm) was used for the chromatographic separation. […] At 7 min, the column was flushed with 95% acetonitrile for 2 min before re-equilibration at initial conditions. […] Data were processed using the Masslynx version 4.0 software from Micromass.

[2] = system: human microsomal proteins; test: Stable isotope (GSH/GSX) trapping of reactive metabolites in microsomal incubation, FIA-MS/MS neutral loss scanning of 129 Da; assay type: in vitro ADME; details: 10 μM test compound, 1 mg/mL human microsomal proteins, 1 mM GSH and GSX (1:1), 60 min, 37° C.; flow injection FIA-MS/MS, analysis within 30 sec
Description: All microsomal incubations described herein were performed at 37° C. in a water bath. The test compound (or drug candidate) was mixed with human microsomal proteins in 50 mM potassium phosphate buffer (pH 7.4) supplemented with GSH and GSX that were pre-mixed at an equal molar ratio of 1:1. Reaction mixtures were then warmed at 37° C. for 5 min. The reactions were initiated by the addition of a NADPH generating system to yield a final volume of 1000 μL. The final reaction mixtures contained 10 μM test compounds, 1 mg/mL microsomal proteins, 1 mM GSH and GSX, 1.3 mM NADP^+, 3.3 mM glucose-6-phosphate, 0.4 U/ml glucose-6-phosphate dehydrogenase, 3.3 mM magnesium chloride. After a 60 min incubation, the reactions were terminated by the addition of 150 μL of trichloroacetic acid (10%). The samples were centrifuged at 10,000 g for 15 min at 4° C. to pellet the precipitated protein, and the supernatants were subjected to solid-phase extractions. […]
For rapid screening of reactive metabolites (as described in Example 11), cleaned samples were directly injected to the mass spectrometer that was operated in the neutral scanning mode. […] After a glutathione conjugate was detected, CID MS/MS spectrum was subsequently acquired to determine the structure of the glutathione conjugate. […]

Structure (SMILES) | detection of reactive metabolites (characteristic isotopic doublet of GSH/GSX adducts in neutral loss mass spectrum) [1] | detection of reactive metabolite (characteristic isotopic doublet of GSH/GSX adducts in neutral loss mass spectrum) [2]
C[C@]12CC[C@@H]3c4ccc(O)c(O)c4CC[C@H]3[C@@H]1CCC2=O [4-Hydroxyestrone] | only one component at a retention time of 5.11 min displayed characteristic doublet | the reactive metabolite was detected
O=C(O)Cc1ccccc1Nc1c(Cl)cccc1Cl [Diclofenac] | two reactive metabolites were co-eluted | 
NC(=O)OCC(COC(N)=O)c1ccccc1 [Felbamate] | no reactive metabolites were formed | 
